Source: ChEMBL document CHEMBL1201862, “PubChem BioAssay data set” (2004)
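Following 48 hours of exposure in 96-well plates, responses at five concentrations were used to interpolate endpoints linearly. GI50 = concentration required for 50% inhibition of growth.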 Active and inactive are the calls of the source. No stated cut-off is given here; in the data, active = GI50 up to about 1.1 µM and inactive = higher.

Key:
Test in all cases: inhibition of tumour cell growth, NCI panel, 48 h
786-0 = system: 786-0
A498 = system: A498
A549 = system: A549
ACHN = system: ACHN
BT-549 = system: BT-549
CAKI-1 = system: CAKI-1
CCRF-CEM = system: CCRF-CEM
DU-145 = system: DU-145
EKVX = system: EKVX
HCT-116 = system: HCT-116
HCT-15 = system: HCT-15
HL-60 = system: HL-60
HOP-62 = system: HOP-62
HOP-92 = system: HOP-92
HT-29 = system: HT-29
Hs-578T = system: Hs-578T
IGROV-1 = system: IGROV-1
K562 = system: K562
KM12 = system: KM12
LOX IMVI = system: LOX IMVI
M14 = system: M14
MCF7 = system: MCF7
MDA-MB-231 = system: MDA-MB-231
MDA-MB-435 = system: MDA-MB-435
MDA-N = system: MDA-N
MOLT-4 = system: MOLT-4
Malme-3M = system: Malme-3M
NCI-H23 = system: NCI-H23
NCI-H460 = system: NCI-H460
NCI-H522 = system: NCI-H522
NCI/ADR-RES = system: NCI/ADR-RES
OVCAR-3 = system: OVCAR-3
OVCAR-4 = system: OVCAR-4
OVCAR-5 = system: OVCAR-5
OVCAR-8 = system: OVCAR-8
PC-3 = system: PC-3
RPMI-8226 = system: RPMI-8226
RXF 393 = system: RXF 393
SF-268 = system: SF-268
SF-295 = system: SF-295
SF-539 = system: SF-539
SK-MEL-28 = system: SK-MEL-28
SK-MEL-2 = system: SK-MEL-2
SK-MEL-5 = system: SK-MEL-5
SK-OV-3 = system: SK-OV-3
SNB-19 = system: SNB-19
SW-620 = system: SW-620
TK-10 = system: TK-10
U-251 = system: U-251
UACC-257 = system: UACC-257
COLO 205 = system: COLO 205
HCC 2998 = system: HCC 2998
NCI-H226 = system: NCI-H226
SN12C = system: SN12C
SNB-75 = system: SNB-75
T47D = system: T47D
UACC-62 = system: UACC-62
UO-31 = system: UO-31

In the case of CC1(C)CCSC(/C=C/c2ccccc2)=N1, the GI50 (786-0) is reported as 12.9 µM (inactive), the GI50 (A498) is reported as 20.1 µM (inactive) and the GI50 (A549) is reported as 25.2 µM (inactive). The GI50 (ACHN) was 17.5 µM (inactive), the GI50 (BT-549) was 7.14 µM (inactive) and the GI50 (CAKI-1) was 14.8 µM (inactive). For the same molecule, the GI50 (CCRF-CEM) was 21.5 µM (inactive), the GI50 (DU-145) was 35.8 µM (inactive) and the GI50 (EKVX) was 31.6 µM (inactive). The GI50 (HCT-116) was 13.6 µM (inactive), the GI50 (HCT-15) was 9.77 µM and the GI50 (HL-60) was 33.1 µM (inactive). The GI50 (HOP-62) was 16.4 µM (inactive), the GI50 (HOP-92) was 13.4 µM (inactive) and the GI50 (HT-29) was 18.4 µM (inactive). For the same molecule, the GI50 (Hs-578T) was 43.4 µM (inactive), the GI50 (IGROV-1) was 20.6 µM (inactive) and the GI50 (K562) was > 100 µM (inactive). The GI50 (KM12) was 12 µM (inactive), the GI50 (LOX IMVI) was 13.7 µM (inactive) and the GI50 (M14) was 13.2 µM (inactive). The GI50 (MCF7) was 12.3 µM (inactive), the GI50 (MDA-MB-231) was 15.7 µM (inactive) and the GI50 (MDA-MB-435) was 17.9 µM (inactive). For the same molecule, the GI50 (MDA-N) was 12.4 µM (inactive), the GI50 (MOLT-4) was 19 µM (inactive) and the GI50 (Malme-3M) was 11.8 µM (inactive). For the same molecule, the GI50 (NCI-H23) was 17.8 µM (inactive), the GI50 (NCI-H460) was 12.1 µM (inactive) and the GI50 (NCI-H522) was 17 µM (inactive). For the same molecule, the GI50 (NCI/ADR-RES) was 14.7 µM (inactive), the GI50 (OVCAR-3) was 15.2 µM (inactive) and the GI50 (OVCAR-4) was 16 µM (inactive). The GI50 (OVCAR-5) was 20.2 µM (inactive), the GI50 (OVCAR-8) was 15.5 µM (inactive) and the GI50 (PC-3) was 16.6 µM (inactive). The GI50 (RPMI-8226) was 17.7 µM (inactive), the GI50 (RXF 393) was 21.6 µM (inactive) and the GI50 (SF-268) was 30.8 µM (inactive). The GI50 (SF-295) was 19.9 µM (inactive), the GI50 (SF-539) was 19.8 µM (inactive) and the GI50 (SK-MEL-28) was 19.3 µM (inactive). The GI50 (SK-MEL-2) was 14.6 µM (inactive), the GI50 (SK-MEL-5) was 15.2 µM (inactive) and the GI50 (SK-OV-3) was 43.9 µM (inactive). The GI50 (SNB-19) was 20.1 µM (inactive), the GI50 (SW-620) was 19.1 µM (inactive) and the GI50 (TK-10) was 18.2 µM (inactive). For the same molecule, the GI50 (U-251) was 17.9 µM (inactive) and the GI50 (UACC-257) was 13 µM (inactive).
In the case of Cc1ccc(S(=O)(=O)CC2CCCn3c2c(C#N)c2ccccc23)cc1 (centres undefined), the GI50 (786-0) is reported as > 100 µM (inactive), the GI50 (A498) is reported as > 100 µM (inactive) and the GI50 (A549) is reported as > 100 µM (inactive). For the same molecule, the GI50 (ACHN) was > 100 µM (inactive), the GI50 (BT-549) was > 100 µM (inactive) and the GI50 (CAKI-1) was > 100 µM (inactive). The GI50 (CCRF-CEM) was > 100 µM (inactive), the GI50 (COLO 205) was > 100 µM (inactive) and the GI50 (DU-145) was > 100 µM (inactive). For the same molecule, the GI50 (EKVX) was > 100 µM (inactive), the GI50 (HCC 2998) was > 100 µM (inactive) and the GI50 (HCT-116) was > 100 µM (inactive). For the same molecule, the GI50 (HCT-15) was greater than 100 µM, the GI50 (HOP-62) was > 100 µM (inactive) and the GI50 (HOP-92) was > 100 µM (inactive). For the same molecule, the GI50 (HT-29) was > 100 µM (inactive), the GI50 (Hs-578T) was > 100 µM (inactive) and the GI50 (IGROV-1) was > 100 µM (inactive). The GI50 (K562) was > 100 µM (inactive), the GI50 (KM12) was > 100 µM (inactive) and the GI50 (LOX IMVI) was > 100 µM (inactive). The GI50 (M14) was > 100 µM (inactive), the GI50 (MCF7) was > 100 µM (inactive) and the GI50 (MDA-MB-231) was > 100 µM (inactive). For the same molecule, the GI50 (MDA-MB-435) was > 100 µM (inactive), the GI50 (MOLT-4) was > 100 µM (inactive) and the GI50 (NCI-H226) was > 100 µM (inactive). The GI50 (NCI-H23) was > 100 µM (inactive), the GI50 (NCI-H522) was > 100 µM (inactive) and the GI50 (NCI/ADR-RES) was 65.5 µM (inactive). For the same molecule, the GI50 (OVCAR-3) was > 100 µM (inactive), the GI50 (OVCAR-4) was > 100 µM (inactive) and the GI50 (OVCAR-5) was > 100 µM (inactive). For the same molecule, the GI50 (OVCAR-8) was > 100 µM (inactive), the GI50 (PC-3) was 54.2 µM (inactive) and the GI50 (RPMI-8226) was > 100 µM (inactive). For the same molecule, the GI50 (RXF 393) was > 100 µM (inactive), the GI50 (SF-268) was > 100 µM (inactive) and the GI50 (SF-295) was > 100 µM (inactive). The GI50 (SF-539) was > 100 µM (inactive), the GI50 (SK-MEL-28) was > 100 µM (inactive) and the GI50 (SK-MEL-2) was > 100 µM (inactive). The GI50 (SK-MEL-5) was > 100 µM (inactive), the GI50 (SK-OV-3) was > 100 µM (inactive) and the GI50 (SN12C) was > 100 µM (inactive). The GI50 (SNB-19) was > 100 µM (inactive), the GI50 (SNB-75) was > 100 µM (inactive) and the GI50 (SW-620) was > 100 µM (inactive). The GI50 (T47D) was 73.3 µM (inactive), the GI50 (TK-10) was > 100 µM (inactive) and the GI50 (U-251) was > 100 µM (inactive). The GI50 (UACC-257) was > 100 µM (inactive), the GI50 (UACC-62) was 57.4 µM (inactive) and the GI50 (UO-31) was > 100 µM (inactive).
